Among the data in the supplement of paper PMC10307832 are relative viability values, retold here.

Compound in the test “YM155 + Foretinib”: COCC[n+]1c2c(n(Cc3cnccn3)c1C)C(=O)c1ccccc1C2=O [YM155] + COc1cc2c(Oc3ccc(NC(=O)C4(C(=O)Nc5ccc(F)cc5)CC4)cc3F)ccnc2cc1OCCCN1CCOCC1 [Foretinib] (partner 0.25 µM)
The test can be described thus: relative viability (nuclei count vs DMSO), 5 days (fraction); higher = more cells survive. Put shortly:
(§1)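 Values are medians from duplicate plates. Each reflects relative viability, defined as the nuclei count of treated wells over that of vehicle wells. Lung cancer cell lines in 1536-well plates were pin-tool dosed one day after seeding with one drug alone or with a fixed anchor-drug dose plus five library-drug doses (not always all listed) in √10 steps, then fixed, stained and imaged at 4× after 5 days.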

Compound in the test “Quizartinib + Navitoclax”: CC(C)(C)c1cc(NC(=O)Nc2ccc(-c3cn4c(n3)sc3cc(OCCN5CCOCC5)ccc34)cc2)no1 [Quizartinib] + CC1(C)CCC(c2ccc(Cl)cc2)=C(CN2CCN(c3ccc(C(=O)NS(=O)(=O)c4ccc(N[C@H](CCN5CCOCC5)CSc5ccccc5)c(S(=O)(=O)C(F)(F)F)c4)cc3)CC2)C1 [Navitoclax] (partner 0.5 µM)
Described as above. The procedure, abridged:
as §1

Turning to SW 1573, the relative viability with YM155 + Foretinib (first compound 0.002 µM) was determined as 0.986; in the test with YM155 + Foretinib (first compound 0.006325 µM), 0.974; in the test with YM155 + Foretinib (first compound 0.02 µM), 0.92; in the test with YM155 + Foretinib (first compound 0.06325 µM) it was 0.877; with Quizartinib + Navitoclax (first compound 0.001 µM) it was 1.1; with Quizartinib + Navitoclax (first compound 0.003162 µM), 0.864. Moreover, the values for the relative viability with Quizartinib + Navitoclax (first compound 0.01 µM), with Quizartinib + Navitoclax (first compound 0.03162 µM) and with Quizartinib + Navitoclax (first compound 0.1 µM) were 0.954, 0.981 and 0.968, respectively.

As to UMC-11, the relative viability turned out to be 0.966 with YM155 + Foretinib (first compound 0.002 µM); 1.1 in the test with YM155 + Foretinib (first compound 0.006325 µM); 1.08 in the test with YM155 + Foretinib (first compound 0.02 µM); 1.12 with YM155 + Foretinib (first compound 0.06325 µM); 0.271 in the test with Quizartinib + Navitoclax (first compound 0.001 µM); 0.278 with Quizartinib + Navitoclax (first compound 0.003162 µM). Besides, the relative viability stood at 0.364 with Quizartinib + Navitoclax (first compound 0.01 µM), 0.346 with Quizartinib + Navitoclax (first compound 0.03162 µM) and 0.307 with Quizartinib + Navitoclax (first compound 0.1 µM).
